Assay [1] deals with PIM (PIM-1, PIM-2, and/or PIM-3). The assay is described as follows: PIM-1, PIM-2 and PIM-3 inhibition, biochemical chemiluminescence assays (Kinase Glo, IC50 determination). As to conditions: Table 1 activity class; PIM refers to PIM-1, PIM-2, and/or PIM-3; read-out: PIM IC50 (Activity B). In general terms: In Kinase-Glo more light means more ATP remaining.
The target in a further assay is CK2 (Homo sapiens, UniProt P68400). Nature of the assay: CK2 inhibition, biochemical chemiluminescence holoenzyme assay (Kinase Glo, IC50 determination). Particulars: Table 1 activity class; symbol given only if active; read-out: CK2 IC50 (Activity C). A digest of the protocol: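 Holoenzyme CK2 assay; compounds pre-incubated with substrate and enzyme, then reacted 150 min at 24-27° C. Remaining ATP measured as luminescence with Kinase Glo, and IC50 derived from the signal.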
Sequence of CK2 (P68400 whole entry): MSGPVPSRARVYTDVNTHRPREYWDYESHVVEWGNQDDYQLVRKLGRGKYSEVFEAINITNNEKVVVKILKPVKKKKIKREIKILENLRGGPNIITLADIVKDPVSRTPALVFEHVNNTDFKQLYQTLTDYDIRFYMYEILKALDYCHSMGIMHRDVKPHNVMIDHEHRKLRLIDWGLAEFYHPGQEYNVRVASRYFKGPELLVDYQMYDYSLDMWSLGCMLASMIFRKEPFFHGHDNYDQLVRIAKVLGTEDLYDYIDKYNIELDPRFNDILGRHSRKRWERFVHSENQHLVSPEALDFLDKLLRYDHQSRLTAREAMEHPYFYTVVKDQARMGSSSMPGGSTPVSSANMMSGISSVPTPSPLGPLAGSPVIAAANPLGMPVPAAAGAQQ
Sequence of CK2 (P67870 whole entry partner): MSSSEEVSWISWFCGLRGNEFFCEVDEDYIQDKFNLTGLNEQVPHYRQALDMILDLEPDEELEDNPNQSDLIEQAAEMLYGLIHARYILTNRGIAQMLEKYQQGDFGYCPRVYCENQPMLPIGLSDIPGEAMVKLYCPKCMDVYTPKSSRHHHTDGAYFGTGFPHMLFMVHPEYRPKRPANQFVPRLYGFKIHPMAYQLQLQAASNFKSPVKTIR

Structures are written as SMILES.

By IC50 is commonly meant the midpoint of a concentration-inhibition curve. Turning to `O=c1[nH]c(CNCc2ccccn2)nc2c1oc1ccc(Br)cc12` [Compound 254, 8-bromo-2-{[(pyridin-2-ylmethyl)amino]methyl}[1]benzofuro[3,2-d]pyrimidin-4(3H)-one], the IC50 (in assay [1]; on CK2) was < 10 µM throughout.
Turning to `COc1cccc(CNCc2nc3c(oc4ccc(Br)cc43)c(=O)[nH]2)c1` [Compound 255, 8-bromo-2-[({[3-(methyloxy)phenyl]methyl}amino)methyl][1]benzofuro[3,2-d]pyrimidin-4(3H)-one], the concentration for half-maximal inhibition (IC50) (in assay [1]; on CK2) was < 10 µM in each case.
Regarding `O=c1[nH]c(CNCc2cccc(Cl)c2)nc2c1oc1ccc(Br)cc12` [Compound 256, 8-bromo-2-({[(3-chlorophenyl)methyl]amino}methyl)[1]benzofuro[3,2-d]pyrimidin-4(3H)-one], the IC50 (in assay [1]; at CK2) was < 10 µM in each case.
Consider `O=c1[nH]c(CN2CCC(N3CCOCC3)CC2)nc2c1oc1ccc(Br)cc12` [Compound 257, 8-bromo-2-[(4-morpholin-4-ylpiperidin-1-yl)methyl][1]benzofuro[3,2-d]pyrimidin-4(3H)-one], for which the IC50 (in assay [1]; at CK2) was < 10 µM in each case.
Turning to `O=c1[nH]c(CNCc2ccco2)nc2c1oc1ccc(Br)cc12` [Compound 258, 8-bromo-2-{[(furan-2-ylmethyl)amino]methyl}[1]benzofuro[3,2-d]pyrimidin-4(3H)-one], the IC50 (in assay [1]; at CK2) was < 10 µM throughout.
As to `O=c1[nH]c(CN2CCN(c3ccccc3)CC2)nc2c1oc1ccc(Br)cc12` [Compound 260, 8-bromo-2-[(4-phenylpiperazin-1-yl)methyl][1]benzofuro[3,2-d]pyrimidin-4(3H)-one], the IC50 (in assay [1]; on CK2) was < 10 µM in each case.
With `COc1ccc(CNCc2nc3c(oc4ccc(Br)cc43)c(=O)[nH]2)cc1` [Compound 261, 8-bromo-2-[({[4-(methyloxy)phenyl]methyl}amino)methyl][1]benzofuro[3,2-d]pyrimidin-4(3H)-one], the concentration for half-maximal inhibition (IC50) (in assay [1]; at CK2) was < 10 µM throughout.
In the case of `O=c1[nH]c(CNC2Cc3ccccc3C2)nc2c1oc1ccc(Br)cc12` [Compound 263, 8-bromo-2-[(2,3-dihydro-1H-inden-2-ylamino)methyl][1]benzofuro[3,2-d]pyrimidin-4(3H)-one], the IC50 (in assay [1]; at CK2) was < 10 µM in each case.
Turning to `O=C(C1CCN(Cc2nc3c(oc4ccc(Br)cc43)c(=O)[nH]2)C1)N1CCOCC1` (centres unmarked) [Compound 267, 8-bromo-2-{[3-(morpholin-4-ylcarbonyl)pyrrolidin-1-yl]methyl}[1]benzofuro[3,2-d]pyrimidin-4(3H)-one], the IC50 (in assay [1]; at CK2) was < 10 µM each time.
For the molecule `COc1ccccc1CNCc1nc2c(oc3ccc(Br)cc32)c(=O)[nH]1` [Compound 268, 8-bromo-2-[({[2-(methyloxy)phenyl]methyl}amino)methyl][1]benzofuro[3,2-d]pyrimidin-4(3H)-one], the half-maximal inhibitory concentration (IC50) (in assay [1]; at CK2) was < 10 µM each time.
With `O=C(NCc1ccc(Cl)cc1)C1CCN(Cc2nc3c(oc4ccc(Br)cc43)c(=O)[nH]2)C1` (centres unmarked) [Compound 271, 1-[(8-bromo-4-oxo-3,4-dihydro[1]benzofuro[3,2-d]pyrimidin-2-yl)methyl]-N-[(4-chlorophenyl)methyl]pyrrolidine-3-carboxamide], the IC50 (in assay [1]; at CK2) was < 10 µM throughout.
For the molecule `O=C(C1CCN(Cc2nc3c(oc4ccc(Br)cc43)c(=O)[nH]2)C1)N1CCC(O)CC1` (centres unmarked) [Compound 272, 8-bromo-2-({3-[(4-hydroxypiperidin-1-yl)carbonyl]pyrrolidin-1-yl}methyl)[1]benzofuro[3,2-d]pyrimidin-4(3H)-one], the half-maximal inhibitory concentration (IC50) (in assay [1]; at CK2) was < 10 µM in each case.
Consider `Cc1cc(C(=O)Nc2ccc(-c3nc4c(oc5ccc(Br)cc54)c(=O)[nH]3)c(Cl)c2)cc(Cl)n1` [Compound 274, N-[4-(8-bromo-4-oxo-3,4-dihydro[1]benzofuro[3,2-d]pyrimidin-2-yl)-3-chlorophenyl]-2-chloro-6-methylpyridine-4-carboxamide], for which the IC50 (in assay [1]; at CK2) was < 10 µM in each case.
`O=C(Nc1ccc(-c2nc3c(oc4ccc(Br)cc43)c(=O)[nH]2)c(Cl)c1)c1ccc(Cl)cc1` [Compound 279, N-[4-(8-bromo-4-oxo-3,4-dihydro[1]benzofuro[3,2-d]pyrimidin-2-yl)-3-chlorophenyl]-4-chlorobenzamide]: the concentration for half-maximal inhibition (IC50) (in assay [1]; on CK2) was < 10 µM throughout.
In the case of `O=C(Nc1ccc(-c2nc3c(oc4ccc(Br)cc43)c(=O)[nH]2)c(Cl)c1)c1cccc(Cl)c1` [Compound 280, N-[4-(8-bromo-4-oxo-3,4-dihydro[1]benzofuro[3,2-d]pyrimidin-2-yl)-3-chlorophenyl]-3-chlorobenzamide], the IC50 (in assay [1]; at CK2) was < 10 µM each time.
For the molecule `COc1cccc(C(=O)Nc2ccc(-c3nc4c(oc5ccc(Br)cc54)c(=O)[nH]3)c(Cl)c2)c1` [Compound 281, N-[4-(8-bromo-4-oxo-3,4-dihydro[1]benzofuro[3,2-d]pyrimidin-2-yl)-3-chlorophenyl]-3-(methyloxy)benzamide], the half-inhibitory concentration (IC50) (in assay [1]; at CK2) was < 10 µM in each case.
Consider `C[C@H](c1ccccc1)N1C[C@H](c2nc3c(oc4ccc(Br)cc43)c(=O)[nH]2)CC1=O` [Compound 282, 8-bromo-2-{(3R)-5-oxo-1-[(1R)-1-phenylethyl]pyrrolidin-3-yl}[1]benzofuro[3,2-d]pyrimidin-4(3H)-one], for which the 50% inhibitory concentration (IC50) (in assay [1]; on CK2) was < 10 µM throughout.
For `Nc1cc(C(=O)Nc2ccc(-c3nc4c(oc5ccc(Br)cc54)c(=O)[nH]3)c(Cl)c2)ccn1` [Compound 284, 2-amino-N-[4-(8-bromo-4-oxo-3,4-dihydro[1]benzofuro[3,2-d]pyrimidin-2-yl)-3-chlorophenyl]pyridine-4-carboxamide], the IC50 (in assay [1]; at CK2) was < 10 µM in each case.
In the case of `COc1ccc(C(=O)Nc2ccc(-c3nc4c(oc5ccc(Br)cc54)c(=O)[nH]3)c(Cl)c2)cc1` [Compound 285, N-[4-(8-bromo-4-oxo-3,4-dihydro[1]benzofuro[3,2-d]pyrimidin-2-yl)-3-chlorophenyl]-4-(methyloxy)benzamide], the IC50 (in assay [1]; at CK2) was < 10 µM in each case.
With `O=C1CC(O)CN1Cc1nc2c(oc3ccc(Br)cc32)c(=O)[nH]1` (centres unmarked) [Compound 286, 8-bromo-2-[(4-hydroxy-2-oxopyrrolidin-1-yl)methyl][1]benzofuro[3,2-d]pyrimidin-4(3H)-one], the IC50 (in assay [1]; on CK2) was < 10 µM throughout.
Turning to `O=c1[nH]c(COCC2CCNC2)nc2c1oc1ccc(Br)cc12` (centres unmarked) [Compound 288, 8-bromo-2-{[(pyrrolidin-3-ylmethyl)oxy]methyl}[1]benzofuro[3,2-d]pyrimidin-4(3H)-one], the 50% inhibitory concentration (IC50) (in assay [1]; at CK2) was < 10 µM in each case.
As for `O=C(Nc1ccc(-c2nc3c(oc4ccc(Br)cc43)c(=O)[nH]2)c(Cl)c1)c1cccnc1` [Compound 292, N-[4-(8-bromo-4-oxo-3,4-dihydro[1]benzofuro[3,2-d]pyrimidin-2-yl)-3-chlorophenyl]pyridine-3-carboxamide], the half-inhibitory concentration (IC50) (in assay [1]; at CK2) was < 10 µM each time.
